System: C/EBPβ
Assay: Adipocyte-related gene expression level: C/EBPβ
Assay type: cell-based
Procedure: In the same manner as in Example 10, the cells were cultured, and total RNA was extracted using Rneasy96 kit (Qiagen) from the cell immediately before and 6 days after addition of […] of the compound of Reference Example 1. cDNA was prepared from the total RNA using TaqMan reverse transcription reagent (Applied Biosystems), quantitative PCR was performed by ABI PRISM7000 or 7000 using TaqMan Universal PCR master mix (Applied Biosystems) and commercially available primers, and the expression level of each gene was determined. The commercially available primers used were as follows. • C/EBPα (Mm00514283_s1, TaqMan Gene Expression Assays, Applied Biosystems) • C/EBPβ (Mm00843434_s1, TaqMan Gene Expression Assays, Applied Biosystems) • KLF15 (Mm00517792_m1, TaqMan Gene Expression Assays, Applied Biosystems) • PPARγ (Mm00440945_m1, TaqMan Gene Expression Assays, Applied Biosystems)
The expression level was amended by the amount of 36B4 (Takeda Pharmaceutical Company Limited) in the same manner as in Example 3, and the relative values to the value immediately before addition of each gene compound as 1 are shown in Table 16. The data in Table 16 show mean±standard deviation at n=3-4 (n is the number of samples).

Question: Which “C/EBPβ expression level (amended by 36B4)” value (10 μm [sic] of compound, 6 days after addition, value immediately before addition = 1) does the source give for `Cc1ncccc1Oc1sc(C(N)=O)c2c1-c1c(cnn1C)CC2` [Ref. Ex. 1, 1-methyl-8-[(2-methylpyridin-3-yl)oxy]-4,5-dihydro-1H-thieno[3,4-g]indazole-6-carboxamide] here?
Answer: 1.3 ± 0.5

Question: What about the “expression level of C/EBPβ (in words)” value (C3H10T1/2 cell) of the same molecule?
Answer: decreased

Source: US20130184272A1, “DIABETES THERAPEUTIC AGENT” (TAKEDA PHARMACEUTICAL COMPANY LIMITED, priority 2010, published 2013)
